According to PMC6724510 (Molecular Biology of the Cell, 2019):

Target: T1, Spf1p (Saccharomyces cerevisiae, UniProt P39986)
T1 sequence (P39986 1-1215): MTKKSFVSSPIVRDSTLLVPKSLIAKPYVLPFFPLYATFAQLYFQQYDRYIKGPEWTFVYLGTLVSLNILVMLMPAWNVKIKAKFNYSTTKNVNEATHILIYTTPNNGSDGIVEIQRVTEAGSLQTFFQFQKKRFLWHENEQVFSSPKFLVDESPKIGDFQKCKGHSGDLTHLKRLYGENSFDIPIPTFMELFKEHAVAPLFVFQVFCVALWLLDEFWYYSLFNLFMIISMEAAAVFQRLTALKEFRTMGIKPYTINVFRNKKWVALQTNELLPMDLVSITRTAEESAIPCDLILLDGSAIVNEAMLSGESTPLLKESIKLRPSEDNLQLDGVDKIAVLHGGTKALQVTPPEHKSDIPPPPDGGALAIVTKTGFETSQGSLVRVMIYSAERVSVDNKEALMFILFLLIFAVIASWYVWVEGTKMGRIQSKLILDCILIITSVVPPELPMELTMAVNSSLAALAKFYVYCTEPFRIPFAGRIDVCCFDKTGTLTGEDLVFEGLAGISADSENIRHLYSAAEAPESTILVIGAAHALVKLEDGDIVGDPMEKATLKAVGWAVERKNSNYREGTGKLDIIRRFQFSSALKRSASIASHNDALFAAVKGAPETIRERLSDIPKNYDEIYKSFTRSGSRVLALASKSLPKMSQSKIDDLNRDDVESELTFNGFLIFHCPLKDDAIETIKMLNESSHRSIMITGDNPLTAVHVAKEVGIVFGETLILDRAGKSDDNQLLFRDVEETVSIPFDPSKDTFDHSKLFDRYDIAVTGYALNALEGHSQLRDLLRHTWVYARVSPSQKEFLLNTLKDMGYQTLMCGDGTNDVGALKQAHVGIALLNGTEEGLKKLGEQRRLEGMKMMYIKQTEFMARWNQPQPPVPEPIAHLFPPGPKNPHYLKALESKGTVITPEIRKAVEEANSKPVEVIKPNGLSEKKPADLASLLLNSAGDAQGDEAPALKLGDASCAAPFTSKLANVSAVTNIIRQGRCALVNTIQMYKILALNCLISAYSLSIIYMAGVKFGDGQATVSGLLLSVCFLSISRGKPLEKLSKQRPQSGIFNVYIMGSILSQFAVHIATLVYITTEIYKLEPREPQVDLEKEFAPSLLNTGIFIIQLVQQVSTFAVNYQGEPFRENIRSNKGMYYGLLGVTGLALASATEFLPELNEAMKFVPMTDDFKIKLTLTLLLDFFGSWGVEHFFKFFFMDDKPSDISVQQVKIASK
Assay: inhibition of ATP hydrolysis by purified Spf1p
Assay type: biochemical

[O]=[V]([OH])([OH])[OH] [vanadate]
Ki: 9.8 ± 2.4 µM
